According to patent publication US10316017B2, “COT modulators and methods of use thereof” (Gilead Sciences, Inc., priority 2015, dated 2019):
Where two headings read alike, the source gives them in different places. One block for each compound: values may come before it.

Columns and labels:
[1] = target: T1, human Cot catalytic domain (30-397 amino acids) (Homo sapiens, UniProt P41279); assay: High Throughput Cot Biochemical Assay (KinEASE TR-FRET); conditions: Cot KinEASE TR-FRET (HTRF) biochemical assay, 400 μM ATP; read-out: IC50 HTRF
T1 construct: Purified recombinant human Cot catalytic domain (30-397 amino acids) was purchased from Cama Biosciences; purchased Cama Biosciences (so in the source)
How it was run: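 TR-FRET (KinEASE) read-out: Eu-labelled phospho-specific antibody binds XL665-tagged STK3 peptide (1 μM) phosphorylated by 5 nM human Cot kinase domain (residues 30-397). Reaction at 400 μM ATP, pH 7.0 MOPS buffer with 10 mM MgOAc, 1 mM DTT and 0.1% DMSO.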

[2] = test system: TNFα production in LPS-stimulated human monocytes; assay: Cot Monocyte TNFα Cell Based Assay; conditions: TNFα in LPS-stimulated human monocytes, read-out: EC50 TNF
How it was run: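 TNFα release quantified by two-antibody TR-FRET, normalised to unstimulated (0%) and LPS-stimulated (100%) wells. Cells got a 1 h compound exposure at 37° C in 0.5% DMSO before 4 h challenge with 50 pg/ml LPS, at 5,000 cells/well.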

T1 sequence (P41279 30-397): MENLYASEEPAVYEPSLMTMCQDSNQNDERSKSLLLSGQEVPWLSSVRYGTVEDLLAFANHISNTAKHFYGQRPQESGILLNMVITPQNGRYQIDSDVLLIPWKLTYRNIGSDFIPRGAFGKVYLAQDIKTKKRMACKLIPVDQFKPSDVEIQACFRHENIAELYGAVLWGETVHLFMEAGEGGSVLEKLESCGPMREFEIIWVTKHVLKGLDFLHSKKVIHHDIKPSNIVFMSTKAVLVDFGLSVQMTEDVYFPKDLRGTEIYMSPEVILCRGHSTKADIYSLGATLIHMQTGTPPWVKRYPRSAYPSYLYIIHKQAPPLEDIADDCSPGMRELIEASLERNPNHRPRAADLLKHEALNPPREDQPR

IC50 [1]: 2 nM
EC50 ([2]; Homo sapiens, Monocyte): 41 nM
Compound: N#CCC[C@@H](Nc1c(C#N)cnc2c(Cl)cc(N[C@H](c3cn(C(F)(F)CO)nn3)c3ccccc3Cl)cc12)c1ccccc1 [Example 67, 8-chloro-6-(((S)-(2-chlorophenyl)(1-(1,1-difluoro-2-hydroxyethyl)-1H-1,2,3-triazol-4-yl)methyl)amino)-4-(((R)-3-cyano-1-phenylpropyl)amino) quinoline-3-carbonitrile]

IC50 [1]: 3 nM
EC50 ([2]; Homo sapiens, Monocyte): > 1000 nM
Compound: CC(C)(C)CNc1c(C#N)cnc2c(C#N)cc(N[C@@H](c3cccc(NS(C)(=O)=O)c3)c3cn(C4CC4)nn3)cc12 [Example 68, (S)-N-(3-((1-cyclopropyl-1H-1,2,3-triazol-4-yl)((3,8-dicyano-4-(neopentylamino)quinolin-6-yl)amino)methyl)phenyl)methanesulfonamide]

IC50 [1]: 3 nM
EC50 ([2]; Homo sapiens, Monocyte): 124 nM
Compound: CN(c1cccc([C@H](Nc2cc(C#N)c3ncc(C#N)c(NCC(C)(C)C)c3c2)c2cn(C3CC3)nn2)c1)S(C)(=O)=O [Example 69, (S)-N-(3-((1-cyclopropyl-1H-1,2,3-triazol-4-yl)((3,8-dicyano-4-(neopentylamino)quinolin-6-yl)amino)methyl)phenyl)-N-methylmethanesulfonamide]

IC50 [1]: 199 nM
EC50 ([2]; Homo sapiens, Monocyte): > 1000 nM
Compound: [2H][C@](Nc1cc(-c2ccnnc2)c2ncc(C#N)c(NCC(C)(C)C)c2c1)(c1ccc(F)cc1)c1cn(C2CC2)nn1 [Example 75, (S)-6-(((1-cyclopropyl-1H-1,2,3-triazol-4-yl)(4-fluorophenyl)methyl-d)amino)-4-(neopentylamino)-8-(pyridazin-4-yl)quinoline-3-carbonitrile]

IC50 [1]: 5 nM
EC50 ([2]; Homo sapiens, Monocyte): 436 nM
Compound: CC(=O)N(C)c1cccc([C@H](Nc2cc(Br)c3ncc(C#N)c(NCC(C)(C)C)c3c2)c2cn(C3CC3)nn2)c1 [Example 78, (S)-N-(3-(((8-bromo-3-cyano-4-(neopentylamino)quinolin-6-yl)amino) (1-cyclopropyl-1H-1,2,3-triazol-4-yl)methyl)phenyl)-N-methylacetamide]

IC50 [1]: 8 nM
EC50 ([2]; Homo sapiens, Monocyte): 278 nM
Compound: CC(=O)Nc1cccc([C@H](Nc2cc(Br)c3ncc(C#N)c(NCC(C)(C)C)c3c2)c2cn(C3CC3)nn2)c1 [Example 79, (S)-N-(3-(((8-bromo-3-cyano-4-(neopentylamino)quinolin-6-yl)amino) (1-cyclopropyl-1H-1,2,3-triazol-4-yl)methyl)phenyl)acetamide]

IC50 [1]: 20 nM
EC50 ([2]; Homo sapiens, Monocyte): 316 nM
Compound: [2H][C@](Nc1cc(-c2cncnc2)c2ncc(C#N)c(N[C@H](CC)c3ccccc3)c2c1)(c1ccc(F)cc1)c1cn(C2CC2)nn1 [Example 81, 6-(((S)-(1-cyclopropyl-1H-1,2,3-triazol-4-yl)(4-fluorophenyl)methyl-d)amino)-4-(((R)-1-phenylpropyl)amino)-8-(pyrimidin-5-yl)quinoline-3-carboitrile]

IC50 [1]: 2 nM
EC50 ([2]; Homo sapiens, Monocyte): 165 nM
Compound: CC(C)(C)CNc1c(C#N)cnc2c(Br)cc(N[C@@H](c3cccc(-c4ncco4)c3)c3cn(C4CC4)nn3)cc12 [Example 83, (S)-8-bromo-6-(((1-cyclopropyl-1H-1,2,3-triazol-4-yl) (3-(oxazol-2-yl)phenyl)methyl)amino)-4-(neopentylamino) quinoline-3-carbonitrile]

IC50 [1]: 190 nM
EC50 [2]: > 1000 nM
Compound: [2H]C(Nc1cc(Cl)c2ncc(C#N)c(NC(CCC#N)c3ccccc3)c2c1)(c1cn(C2CC2)nn1)c1ccccc1Cl (stereo not shown) [Example 88, 8-chloro-6-(((2-chlorophenyl) (1-cyclopropyl-1H-1,2,3-triazol-4-yl)methyl-d)amino)-4-((3-cyano-1-phenylpropyl)amino) quinoline-3-carbonitrile]

The next lines start with the compound.

Compound: CC(C)(C)CNc1c(C#N)cnc2c(Cl)cc(N[C@H](c3cn(C4(C(N)=O)CC4)nn3)c3ccccc3Cl)cc12 [Example 70, (S)-1-(4-(((8-chloro-3-cyano-4-(neopentylamino)quinolin-6-yl)amino) (2-chlorophenyl)methyl)-1H-1,2,3-triazol-1-yl) cyclopropane-1-carboxamide]
IC50 [1]: 9 nM
EC50 ([2]; Homo sapiens, Monocyte): 124 nM

Compound: N#CCC[C@@H](Nc1c(C#N)cnc2c(Cl)cc(N[C@H](c3cn(CC(N)=O)nn3)c3ccccc3Cl)cc12)c1ccccc1 [Example 71, 2-(4-((S)-((8-chloro-3-cyano-4-(((R)-3-cyano-1-phenylpropyl)amino)quinolin-6-yl)amino) (2-chlorophenyl)methyl)-1H-1,2,3-triazol-1-yl) acetamide]
IC50 [1]: 4 nM
EC50 ([2]; Homo sapiens, Monocyte): 657 nM

Compound: CC1(n2cc([C@@H](Nc3cc(Cl)c4ncc(C#N)c(N[C@H](CCC#N)c5ccccc5)c4c3)c3ccccc3Cl)nn2)CC1 [Example 72, 8-chloro-6-(((S)-(2-chlorophenyl)(1-(1-methylcyclopropyl)-1H-1,2,3-triazol-4-yl)methyl)amino)-4-(((R)-3-cyano-1-phenylpropyl)amino)quinoline-3-carbonitrile]
IC50 [1]: 2 nM
EC50 ([2]; Homo sapiens, Monocyte): 66 nM

Compound: N#CCC[C@@H](Nc1c(C#N)cnc2c(Cl)cc(N[C@H](c3cn(C4(C#N)CC4)nn3)c3ccccc3Cl)cc12)c1ccccc1 [Example 73, 8-chloro-6-(((S)-(2-chlorophenyl)(1-(1-cyanocyclopropyl)-1H-1,2,3-triazol-4-yl)methyl)amino)-4-(((R)-3-cyano-1-phenylpropyl)amino) quinoline-3-carbonitrile]
IC50 [1]: 2 nM
EC50 ([2]; Homo sapiens, Monocyte): 34 nM

Compound: [2H][C@](Nc1cc(Cl)c2ncc(C#N)c(N[C@H](CCC#N)c3ccccc3)c2c1)(c1ccc(Cl)cc1)c1cn(C2CC2)nn1 [Example 74, 8-chloro-6-(((S)-(4-chlorophenyl)(1-cyclopropyl-1H-1,2,3-triazol-4-yl)methyl-d)amino)-4-(((R)-3-cyano-1-phenylpropyl)amino) quinoline-3-carbonitrile]
IC50 [1]: 3 nM
EC50 ([2]; Homo sapiens, Monocyte): 30 nM

Compound: CC(=O)Nc1cccc([C@H](Nc2cc(C#N)c3ncc(C#N)c(NCC(C)(C)C)c3c2)c2cn(C3CC3)nn2)c1 [Example 76, (S)-N-(3-((1-cyclopropyl-1H-1,2,3-triazol-4-yl)((3,8-dicyano-4-(neopentylamino)quinolin-6-yl)amino)methyl)phenyl)acetamide]
IC50 [1]: 2 nM
EC50 ([2]; Homo sapiens, Monocyte): 462 nM

Compound: CC(C)(C)CNc1c(C#N)cnc2c(C#N)cc(N[C@@H](c3ccc(Cl)cc3)c3cn(C4CC4)nn3)cc12 [Example 77, (S)-6-(((4-chlorophenyl) (1-cyclopropyl-1H-1,2,3-triazol-4-yl)methyl)amino)-4-(neopentylamino) quinoline-3,8-dicarbonitrile]
IC50 [1]: 9 nM
EC50 ([2]; Homo sapiens, Monocyte): 108 nM

Compound: [2H][C@](Nc1cc(Br)c2ncc(C#N)c(NCC(C)(C)C)c2c1)(c1ccc(Cl)cc1)c1cn(C2CC2)nn1 [Example 80, (S)-8-bromo-6-(((4-chlorophenyl)(1-cyclopropyl-1H-1,2,3-triazol-4-yl)methyl-d)amino)-4-(neopentylamino) quinoline-3-carbonitrile]
IC50 [1]: 31 nM
EC50 ([2]; Homo sapiens, Monocyte): 395 nM

Compound: CC(C)(C)CNc1c(C#N)cnc2c(C#N)cc(N[C@@H](c3cccc(-c4ncco4)c3)c3cn(C4CC4)nn3)cc12 [Example 82, (S)-6-(((1-cyclopropyl-1H-1,2,3-triazol-4-yl)(3-(oxazol-2-yl)phenyl)methyl)amino)-4-(neopentylamino) quinoline-3,8-dicarbonitrile]
IC50 [1]: 1 nM
EC50 ([2]; Homo sapiens, Monocyte): 183 nM

Compound: [2H][C@](Nc1cc(C#N)c2ncc(C#N)c(NCC(C)(C)C)c2c1)(c1ccccc1)c1cn(C2CC2)nn1 [Example 84, (S)-6-(((1-cyclopropyl-1H-1,2,3-triazol-4-yl) (phenyl)methyl-d)amino)-4-(neopentylamino) quinoline-3,8-dicarbonitrile]
IC50 [1]: 2 nM
EC50 ([2]; Homo sapiens, Monocyte): 47 nM

Compound: [2H][C@@](Nc1cc(C(C)=O)c2ncc(C#N)c(Nc3cccc(Cl)c3)c2c1)(c1cn(C2CC2)nn1)c1ccccc1Cl [Example 85, (S)-8-acetyl-6-(((2-chlorophenyl)(1-cyclopropyl-1H-1,2,3-triazol-4-yl)methyl-d)amino)-4-((3-chlorophenyl)amino)quinoline-3-carbonitrile]
IC50 [1]: 42 nM
EC50 ([2]; Homo sapiens, Monocyte): 862 nM

Compound: [2H][C@@](Nc1cc(Cl)c2ncc(C#N)c(NCC(C)(C)C)c2c1)(c1cn(C23CC(C2)C3)nn1)c1ccccc1Cl [Example 86, (S)-6-(((1-(bicyclo[1.1.1]pentan-1-yl)-1H-1,2,3-triazol-4-yl)(2-chlorophenyl)methyl-d)amino)-8-chloro-4-(neopentylamino) quinoline-3-carbonitrile]
IC50 [1]: 22 nM
EC50 ([2]; Homo sapiens, Monocyte): 244 nM

Compound: [2H]C(Nc1cc(Cl)c2ncc(C#N)c(NC(CCC#N)c3ccccc3)c2c1)(c1cn(C2CC2)nn1)c1ccccc1Cl (stereo not shown) [Example 87, 8-chloro-6-(((2-chlorophenyl) (1-cyclopropyl-1H-1,2,3-triazol-4-yl)methyl-d)amino)-4-((3-cyano-1-phenylpropyl)amino) quinoline-3-carbonitrile]
IC50 [1]: > 10000 nM
EC50 ([2]; Homo sapiens, Monocyte): > 1000 nM

Compound: [2H][C@](Nc1cc(Cl)c2ncc(C#N)c(N[C@H](CCC#N)c3ccccc3)c2c1)(c1cn(C2CC2)nn1)c1ccccc1Cl [Example 89, 8-chloro-6-(((2-chlorophenyl) (1-cyclopropyl-1H-1,2,3-triazol-4-yl)methyl-d)amino)-4-(((R)-3-cyano-1-phenylpropyl)amino) quinoline-3-carbonitrile]
IC50 [1]: 2 nM
EC50 ([2]; Homo sapiens, Monocyte): 38 nM
